Patent US7605175B2, “Inhibitors of cyclin-dependent kinases, compositions and uses related thereto” (GPC Biotech AG, priority 2001, dated 2009)

Experiments:
Cdk2/cyclin E = biological target: T1, Cdk2/cyclin E (Homo sapiens, UniProt P24941); assay: Biochemical kinase assay Cdk2/cyclin E; settings: Table 6
T1 construct: made in house; host or cells: Sf9 insect cells
How it was run: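 Sf9-expressed Cdk/cyclin heterodimers phosphorylate GST-Rb (residues 379–928, 40 μg) with 50 μM ATP plus [γ-33P]ATP, pH 7.5, 10% DMSO, 15 min at 30 °C. Compounds 1 nM–10 μM. 33P captured on glutathione-sepharose and scintillation-counted; activity relative to DMSO control after EDTA-background subtraction.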

Cdc2/cyclin B = biological target: T2, Cdc2/cyclin B (Homo sapiens, UniProt P06493); assay: Biochemical kinase assay Cdc2/cyclin B; settings: Table 6
T2 construct: purchased
T2 sequence (P06493 whole entry, species assumed): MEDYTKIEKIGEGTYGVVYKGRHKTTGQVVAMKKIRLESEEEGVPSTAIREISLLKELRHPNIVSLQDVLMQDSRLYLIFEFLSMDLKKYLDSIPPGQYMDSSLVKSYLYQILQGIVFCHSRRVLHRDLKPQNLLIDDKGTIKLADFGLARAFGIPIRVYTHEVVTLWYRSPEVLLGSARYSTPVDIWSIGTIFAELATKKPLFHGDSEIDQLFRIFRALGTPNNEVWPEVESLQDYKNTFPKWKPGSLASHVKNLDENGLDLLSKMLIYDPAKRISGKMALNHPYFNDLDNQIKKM
T2 sequence (P14635 whole entry partner, species assumed): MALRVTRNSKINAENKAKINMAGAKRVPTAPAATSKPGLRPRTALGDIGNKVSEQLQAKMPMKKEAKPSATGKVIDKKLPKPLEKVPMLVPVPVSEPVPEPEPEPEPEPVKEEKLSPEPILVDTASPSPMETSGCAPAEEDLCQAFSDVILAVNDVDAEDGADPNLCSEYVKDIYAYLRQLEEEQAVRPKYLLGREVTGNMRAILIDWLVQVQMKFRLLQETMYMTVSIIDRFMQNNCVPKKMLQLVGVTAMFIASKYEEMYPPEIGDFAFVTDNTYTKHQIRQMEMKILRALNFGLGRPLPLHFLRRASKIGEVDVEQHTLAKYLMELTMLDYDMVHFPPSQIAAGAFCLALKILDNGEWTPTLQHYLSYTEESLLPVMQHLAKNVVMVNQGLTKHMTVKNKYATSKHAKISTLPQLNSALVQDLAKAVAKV
How it was run: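 Radiometric TCA-precipitation assay measuring [γ-32P]ATP incorporation into Histone H1 (20 μg); 50 μM ATP, 10% DMSO, Tris pH 7.5 with MgCl2 and DTT. Compounds at 1 nM to 10 μM; reaction 20 min at 30 °C, stopped with EDTA/ATP. Activity relative to DMSO control after subtracting 50 mM EDTA background.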

[1] = biological target: protein kinase C (mixed isozymes); assay: Protein kinase C TCA precipitation assay; assay type: biochemical, rat; settings: Table 5; read-out: PKC IC50
Experimental: Enzymes: Cdc2/cyclin B was obtained from commercial sources. Cdk2/his-cyclin Eshort was expressed in Sf9 cells. Cdk2/cyclin A, cdk4/cyclin D1, and cdk6/cyclin D2 were expressed in Sf9 cells. Protein kinase A (catalytic subunit, from bovine heart) and protein kinase C (mixed isozymes from rat brain) were obtained from commercial sources.
Protein kinase C and protein kinase A were assayed using a TCA precipitation assay with Histone H1 as a substrate. For protein kinase A, the final assay contained 50 mM Tris, 10 mM MgCl2, 1 mM dithiothreitol, pH 7.5, 12 μM adenosine triphosphate, 10% (v/v) dimethylsulfoxide (from compounds), 20 μg Histone H1, 2 μCi [γ-^32P] adenosine triphosphate, 0.2 U protein kinase A in a 100 μL assay. A protein kinase C assay contained 50 mM Tris, 10 mM MgCl2, 1 mM dithiothreitol, 0.8 mM CaCl2, pH 7.5, 5 μM adenosine triphosphate, 10% (v/v) dimethylsulfoxide (from compounds), 20 μg Histone H1, 2 μCi [γ-^32P] adenosine triphosphate, 0.01 U protein kinase C in a 50 μL assay. The assays were started by the addition of enzyme, allowed to react for 10 min at 30° C., and stopped by adding 0.4 volumes of 237 mM disodium ethylenediamine tetraacetate, 105 mM adenosine triphosphate, pH 8.0. […] The filters were washed ten times with 25% (w/v) trichloroacetic acid, and the amount of incorporated [^32P]phosphate was determined by adding 100 μl Microscint and scintillation counting.

| IC50 [1] [µM] | Structure (SMILES) | IC50 (Cdk2/cyclin E) [nM] | IC50 (Cdc2/cyclin B) [nM] |
| --- | --- | --- | --- |
| – | COCCN1CCN(Cc2ccc(-c3[nH]nc4c3C(=O)c3c(NC(=O)NN5CCOCC5)cccc3-4)cc2)CC1.Cl.Cl [Compound B16, N-[3-(4-{[4-(2-methoxyethyl)piperazinyl]methyl}phenyl)-4-oxoindeno[2,3-d]pyrazol-5-yl](morpholin-4-ylamino)carboxamide dihydrochloride] | < 10 | < 10 |
| > 10 | CC(C)c1nn(-c2c(Cl)cccc2Cl)c2nc(Cc3ccc(O)c(CN4CCN(C(C)C)CC4)c3)[nH]c(=O)c12 [Compound C] | – | – |
| – | CC(C)N1CCN(C(=O)COc2ccc(-c3[nH]nc4c3C(=O)c3c(NC(=O)NN5CCOCC5)cccc3-4)cc2)CC1.Cl [Compound A37] | < 100 | < 100 |
